{"source": "paper PMC6562865", "about": "“Vitis vinifera L. Leaf Extract Inhibits In Vitro Mediators of Inflammation and Oxidative Stress Involved in Inflammatory-Based Skin Diseases” (Antioxidants, 2019)", "format_in_all_cases": "cell-based, human", "key": {"[1]": {"tested_on": "MMP-9", "experiment": "MMP-9 release in HaCaT cells (ELISA)", "conditions": "20 μM", "experimental": "MMP-9 secretion was performed on HaCaT cells treated with TNF-α (10 ng/mL) and (LPS 5 μg/mL) for 3, 6, 24, and 48 h. Cells were grown in 24-well plates (30,000 cell/well) for 48 h, before the treatment. Human MMP-9 ELISA Kit from RayBio® (Norcross GA, USA) was used to quantify MMP-9 secretion according to manufacturer’s instructions. 300 μL of samples in duplicate were transferred into a 96-well plate coated with anti-human MMP-9 and incubated overnight at 4 °C with gentle shaking. MMP-9 secreted was detected by the use of biotinylated and streptavidin–horseradish peroxidase (HRP) conjugate antibodies as previously described. The quantitative measurement of MMP-9 was done using an optimized standard curve supplied with the ELISA kit (8.23–6000 pg/mL). The MMP-9 secretion reached the maximum at 24 h for both TNF-α and LPS. VVWE was tested at 10–50 μg/mL in the presence of stimuli and between 2.5–200 μg/mL without the pro-inflammatory mediators."}, "[2]": {"tested_on": "NF-κB", "experiment": "NF-κB-driven transcription, NF-κB-LUC transient transfection luciferase assay in HaCaT cells", "conditions": "transfected HaCaT, 6 h, 20 μM", "experimental": "(§1) HaCaT cells were plated in 24-well plates and transiently transfected with the plasmid NF-κB-LUC or native IL-8-LUC, both at 250 ng per well, using Lipofectamine® 2000, according to previous studies. Sixteen hours later, the cells were treated for 6 h with increasing concentrations of VVWE in the presence of the pro-inflammatory mediators (TNF-α at 10 ng/mL or LPS at 5 μg/mL). After six hours, cells were harvested and the luciferase assay was performed using the BriteliteTM Plus reagent (PerkinElmer Inc., Massachusetts, USA) according to the manufacturer’s instructions. Data were expressed considering 100% of the luciferase activity related to the cytokine-induced promoter activity."}, "[3]": {"tested_on": "IL-8", "experiment": "IL-8 release in HaCaT cells (ELISA)", "conditions": "20 μM", "experimental": "Cells were grown in 24-well plates for 48 h (30,000 cells per well) before the cytokine treatment. IL-8 was quantified using a Human Interleukin-8 ELISA Development Kit as previously described. Preliminary time-course experiments were performed to set the best conditions for further experiments. HaCaT were treated with TNF-α (10 ng/mL), LPS (5 μg/mL), or H2O2 (100 μM), for 3, 6, 24, and 30 h. The IL-8 secretion induced by TNF-α or LPS was tested after 6 h of treatment, while the 24-h time point was chosen for H2O2. Epigallocatechin-3-gallate (EGCG) (20 μM) was used as the reference inhibitor of IL-8 secretion.\n(§2) HaCaT cells were grown in 24-well plates for 48 h (30,000 cells per well), washed with phosphate-buffered saline (PBS), and exposed to UVB (40 mJ/cm^2) light source (Triwood 31/36, W36, V230, Helios Italquartz, Milano, Italy) in a glass bath. Radiation time (about 50 s) was adjusted for each experimental day, measuring energy emission by the LP 471 UVB probe (Delta OHM, Padova, Italy). After radiation, serum free fresh culture medium was immediately added. For the evaluation of IL-8 release, cells were treated for additional 9 h, a time point selected in preliminary time-course experiments. For NF-κB (p65) translocation, HaCaT cells were treated for 1 h after UVB radiation. EGCG (20 μM) was used as reference inhibitor."}, "[4]": {"tested_on": "VEGF", "experiment": "VEGF release in HaCaT cells (ELISA)", "conditions": "20 μM", "experimental": "Cells were grown in 24-well plates for 48 h (30,000 cells per well) before challenge with the pro-inflammatory mediator. VEGF was quantified by the Human VEGF ELISA Development Kit. Briefly, Corning 96-well EIA/RIA plates (Sigma-Aldrich, Milan, Italy) were coated with the antibody provided in the ELISA Kit (PeproTech Inc., London, UK) overnight at 4 °C. After blocking the reaction, 300 μL of samples were transferred into wells at room temperature for 2 h. The amount of VEGF in the samples was detected by spectroscopy (signal read: 450 nm, 0.1 s) as described above. The quantitative measurement of VEGF was done using an optimized standard curve supplied with the ELISA set (100–2000 pg/mL). […] EGCG (20 μM) was used as the reference inhibitor of VEGF secretion."}, "[5]": {"tested_on": "IL-8 promoter", "experiment": "IL-8 promoter activity, IL-8-LUC transient transfection luciferase assay in HaCaT cells", "conditions": "transfected HaCaT, 6 h, 20 μM", "experimental": "as §1"}, "[6]": {"tested_on": "NF-κB (p65)", "experiment": "NF-κB (p65) nuclear translocation in HaCaT cells", "conditions": "20 μM", "experimental": "For the evaluation of the NF-κB (p65) translocation, HaCaT were plated at the concentration of 3 × 10^6 cells/mL in 100-mm plates with fresh complete medium. After 48 h, cells were treated for 1 h with the inflammatory mediators (TNF-α at 10 ng/mL or LPS at 5 μg/mL) and the extract (10–50 μg/mL) under study, using FBS-free medium. Nuclear extracts were prepared using the Nuclear Extraction Kit from the Cayman Chemical Company (Ann Arbor, MI, USA) as previously described.\nData were expressed considering 100% of the absorbance related to the cytokine-induced NF-κB nuclear translocation. EGCG (20 μM) was used as the reference inhibitor of the NF-κB nuclear translocation. The results are the mean ± SD of three experiments in triplicate.\nas §2"}}}
{"substance": "Epigallocatechin-3-gallate [EGCG]", "values": [{"measurement": "inhibition of LPS-induced MMP-9 secretion", "setting": "[1]; LPS 5 μg/mL, 30 h", "value": "no inhibition"}, {"measurement": "inhibition of TNF-α-induced MMP-9 secretion", "setting": "[1]; TNF-α 10 ng/mL, 24 h", "value": 38.0, "unit": "%"}, {"measurement": "inhibition of LPS-induced NF-κB-driven transcription", "setting": "[2]; LPS 5 μg/mL", "value": 29.9, "unit": "%"}, {"measurement": "inhibition of TNF-α-induced NF-κB-driven transcription", "setting": "[2]; TNF-α 10 ng/mL", "value": 59.9, "unit": "%"}, {"measurement": "inhibition of LPS-induced IL-8 secretion", "setting": "[3]; LPS 5 μg/mL, 6 h", "value": 84.9, "unit": "%"}, {"measurement": "inhibition of TNF-α-induced IL-8 secretion", "setting": "[3]; TNF-α 10 ng/mL, 6 h", "value": 62.1, "unit": "%"}, {"measurement": "inhibition of UVB-induced IL-8 secretion", "setting": "[3]; UVB 40 mJ/cm^2, 9 h", "value": 61.7, "unit": "%"}, {"measurement": "inhibition of H2O2-induced VEGF secretion", "setting": "[4]; H2O2 100 μM, 24 h", "value": 100, "unit": "%"}, {"measurement": "inhibition of LPS-induced VEGF secretion", "setting": "[4]; LPS 5 μg/mL, 30 h", "value": 100, "unit": "%"}, {"measurement": "inhibition of TNF-α-induced VEGF secretion", "setting": "[4]; TNF-α 10 ng/mL, 24 h", "value": 78.7, "unit": "%"}, {"measurement": "inhibition of LPS-induced IL-8 promoter activity", "setting": "[5]; LPS 5 μg/mL", "value": 33.3, "unit": "%"}, {"measurement": "inhibition of TNF-α-induced IL-8 promoter activity", "setting": "[5]; TNF-α 10 ng/mL", "value": 35.9, "unit": "%"}, {"measurement": "inhibition of LPS-induced NF-κB nuclear translocation", "setting": "[6]; LPS 5 μg/mL, 1 h", "value": 53.2, "unit": "%"}, {"measurement": "inhibition of TNF-α-induced NF-κB nuclear translocation", "setting": "[6]; TNF-α 10 ng/mL, 1 h", "value": 62.4, "unit": "%"}, {"measurement": "inhibition of UVB-induced NF-κB nuclear translocation", "setting": "[6]; UVB 40 mJ/cm^2, 1 h", "value": 39.1, "unit": "%"}]}
